Experimental findings from patent publication US20210163404A1, “NOVEL UREA COMPOUNDS AND BIOISOSTERES THEREOF AND THEIR USE FOR TREATING INFLAMMATION AND INFLAMMATION-RELATED PATHOLOGIES” (UNIVERSITÉ LAVAL, priority 2017, published 2021) are described below.

Values joined by “and” are separate entries in the source; they are usually repeats but may differ in a detail not shown here. Identical values can stand only once.

Series [1] has as its system HDFn neonatal dermal fibroblast cell line. Put plainly: Antiproliferative activity (NCI procedure, sulforhodamine B), HDFn. Format: cell-based, human. As to conditions: Homo sapiens, Fibroblast, unit inferred, tested 781 nM to 100 μM, 48 h. As to the method:
(§1) The antiproliferative activity of compounds 3a-b, 4a-e, 5a-e and 6a-e was subsequently evaluated using the human HT-29 colon adenocarcinoma and the A549 adenocarcinoma alveolar epithelial cancer cell lines, the HaCaT spontaneously transformed aneuploid immortal keratinocyte cell line and the HDFn neonatal dermal fibroblast cell line (Table 2). Cell growth inhibition was assessed according to the NCI/NIH Developmental Therapeutics Program.
(§2) The antiproliferative activity assay of all compounds was assessed using the procedure recommended by the National Cancer Institute for its drug screening program with minor modifications. Briefly, 96-well microtiter plates were seeded with 75 μL of a suspension of either HaCaT (5×10^3), HT-29 (3.0×10^3), A549 (3.0×10^3) or HDFn (3×10^3) cells per well in DMEM and incubated for 24 h at 37° C. in a moisture-saturated atmosphere containing 5% CO2. Compounds freshly solubilized in DMSO (40 mM) were diluted in fresh DMEM, and 75 μL aliquots containing serially diluted concentrations of the compound were added. Final compound concentrations ranged from 100 μM to 781 nM. DMSO was maintained at a concentration of <0.5% (v/v) to avoid any related cytotoxicity. Plates were subsequently incubated for 48 h. Cell growth was then stopped by the addition of cold trichloroacetic acid to the wells (10% w/v, final concentration), followed by a 1 h incubation period at 4° C. The plates were washed 4-times with water. A sulforhodamine B solution (75 μL; 0.1% w/v) in acetic acid (1%) was subsequently added to each well and the plates incubated over a 15 min period while at room temperature. After staining, any unbound dye was removed by washing 4-times with an acetic acid solution (1%). Bound dye was solubilized in 20 mM Tris base and the absorbance was measured at an optimal wavelength (530-568 nm) using a μQuant® Universal microplate spectrophotometer (BioTek, Winooski, Vt.). The measurements for treated cells were compared with measurements from control cell plates fixed on treatment day and the percentage of cell growth inhibition was calculated for each drug. The experiments were performed at least twice in triplicate. The assays were considered valid when the coefficient of variation for a given set of conditions and within the same experiment was <10%.

For series [2], the system named is A549 adenocarcinoma alveolar epithelial cancer cells. Briefly: Antiproliferative activity (NCI procedure, sulforhodamine B), A549. Format: cell-based, human. As to conditions: Homo sapiens, A549, unit inferred, tested 781 nM to 100 μM, 48 h. As to the method:
as §1, §2

In series [3] the test system is HaCaT keratinocyte cell line. Briefly: Antiproliferative activity (NCI procedure, sulforhodamine B), HaCaT. The series is classed as cell-based, human. The note with it: Homo sapiens, HaCaT, unit inferred, tested 781 nM to 100 μM, 48 h. The procedure:
as §1, §2

Series [4] concerns HT-29 colon adenocarcinoma cells. Briefly: Antiproliferative activity (NCI procedure, sulforhodamine B), HT-29. Format: cell-based, human. The note with it: Homo sapiens, HT-29, unit inferred, tested 781 nM to 100 μM, 48 h. The procedure: as §1, §2

A word on the melting point: it is the temperature, or range, at which the solid turns liquid. For orientation: IC50 means the concentration that gives 50% inhibition. High values mean a need for much substance, low ones inhibition by little substance.

With `O=C(NCC1CCCC1)Nc1ccc(I)cc1` [Compound 25, 1-(Cyclopentylmethyl)-3-(4-iodophenyl)urea], the melting point was 158 to 161 °C and 158 to 162 °C.

For the molecule `O=C(Nc1cccc(I)c1)NC1CCC1` [Compound 38, 1-Cyclobutyl-3-(3-iodophenyl)urea], the melting point lay within 178 to 180 °C.

For `O=C(NCC1CC1)Nc1ccc(I)cc1` [Compound 21, 1-(Cyclopropylmethyl)-3-(4-iodophenyl)urea], the melting point lay within 192 to 194 °C.

As to `CCC(CC)NC(=O)Nc1ccc(I)cc1` [Compound 64, 1-(4-Iodophenyl)-3-(pentan-3-yl)urea], the melting point was in the range of 174 to 176 °C.

For the molecule `CC(C)(C)NC(=O)Nc1ccc(I)cc1` [Compound 2], the melting point is 179 to 199 °C. 27.1 µM corresponded to half-maximal inhibition in series [1] (Table 5) (IC50). In series [2] (Table 5), this molecule had an IC50 of 37.1 µM. For the same molecule, in series [3] (Table 5), the IC50 was 44.7 µM. Also, the IC50 in series [4] (Table 5) is 32.9 µM.

Take `O=C(NCC1CCCC1)Nc1ccc(C2CCCCC2)cc1` [Compound 59]: the melting point was 142 to 144 °C.

Take `S=C(Nc1ccc(C2CCCCC2)cc1)NC1CC1` [Compound 93]: the melting point was 157 to 165 °C. Half-maximal inhibition in series [1] (Table 8) (IC50) was put at 84 µM. The 50% inhibitory concentration (IC50) in series [2] (Table 8) is 20.8 µM. Also, the half-maximal inhibitory concentration (IC50) in series [3] (Table 8) amounted to 84.7 µM. Moreover, 30.8 µM corresponded to half-maximal inhibition in series [4] (Table 8) (IC50).

As to `O=C(Nc1ccc(C2CCCCC2)cc1)NC1CC=CC1` [Compound 60, 1-(4-Cyclohexylphenyl)-3-(cyclopent-3-en-1-yl)urea], the melting point fell in the range of 167 to 169 °C.

Regarding `O=C(Nc1cccc(C2CCCCC2)c1)NC1CC1` [Compound 67], the melting point was 138 to 144 °C. The same molecule returned an IC50 in series [1] (Table 6) of 25 µM. The molecule further yielded a half-maximal inhibitory concentration (IC50) in series [2] (Table 6) of 37 µM. For the same molecule, the IC50 in series [3] (Table 6) is 17 µM. In series [4] (Table 6), this molecule gave an IC50 of 26 µM.

On to `CCC(CC)NC(=O)Nc1ccc(C(C)(C)C)cc1` [Compound 34, 1-(4-(t-Butyl)phenyl)-3-(pentan-3-yl)urea], for which the melting point is 119 to 121 °C.

`COCCNC(=O)Nc1cccc(I)c1` [Compound 42, 1-(3-Iodophenyl)-3-(2-methoxyethyl)urea]: the melting point fell in the range of 99 to 101 °C.

Turning to `CC(C)(C)c1cccc(NC(=O)NC2CCC2)c1` [Compound 46, 1-(3-(t-Butyl)phenyl)-3-cyclobutylurea], the melting point is 165 to 166 °C.

`CC(C)(C)NC(=O)Nc1cccc(I)c1` [Compound 5] came in with a melting point of 189 to 193 °C. Also, the midpoint of inhibition in series [1] (Table 5), the IC50, lay at 17.4 µM. Moreover, in series [2] (Table 5), the half-inhibitory concentration (IC50) amounted to 61.8 µM. Besides, in series [3] (Table 5), the IC50 was above 100 µM. The molecule also had an IC50 in series [4] (Table 5) of 81.3 µM.

Consider `S=C(Nc1cccc(I)c1)NC1CC1` [Compound 103], for which the melting point was in the range of 142 to 152 °C. This molecule also returned an IC50 in series [1] (Table 8) above 100 µM. The same molecule yielded an IC50 in series [2] (Table 8) above 100 µM. In addition, the 50% inhibitory concentration (IC50) in series [3] (Table 8) is above 100 µM. The molecule also displayed an IC50 in series [4] (Table 8) above 100 µM.

For the molecule `O=C(Nc1cccc(C2CCCCC2)c1)NC1CCCC1` [Compound 69], the melting point fell in the range of 132 to 137 °C. This molecule also displayed an IC50 in series [1] (Table 6) of 7.6 µM. Also, inhibition in series [2] (Table 6) was half-maximal at 12 µM (IC50). This molecule gave a half-inhibitory concentration (IC50) in series [3] (Table 6) of 4 µM. Further, in series [4] (Table 6), half-maximal inhibition (IC50) was put at 8.9 µM.

Molecule `CC(C)NC(=O)Nc1cccc(C(C)(C)C)c1` [Compound 10] came in with a melting point of 146 to 149 °C. This molecule also yielded a concentration for half-maximal inhibition (IC50) in series [1] (Table 5) of 92.4 µM. This molecule also had an IC50 in series [2] (Table 5) of 96.8 µM. Also, the concentration for half-maximal inhibition (IC50) in series [3] (Table 5) is above 100 µM. In series [4] (Table 5), this molecule displayed an IC50 of 85.2 µM.

`CC(C)(C)CNC(=O)Nc1cccc(C(C)(C)C)c1` [Compound 51, 1-(3-(t-Butyl)phenyl)-3-neopentylurea] displayed a melting point of 145 to 147 °C.

`O=C(NCC1CC1)Nc1ccc(C2CCCCC2)cc1` [Compound 55, 1-(4-Cyclohexylphenyl)-3-(cyclopropylmethyl)urea] showed a melting point of 178 to 181 °C.

Molecule `CC(C)(C)c1cccc(NC(=O)NCC2CC2)c1` [Compound 45, 1-(3-(t-Butyl)phenyl)-3-(cyclopropylmethyl)urea] registered a melting point of 165 to 166 °C.

In turn, `CCC(CC)NC(=O)Nc1cccc(C(C)(C)C)c1` [Compound 53, 1-(3-(t-Butyl)phenyl)-3-(pentan-3-yl)urea] registered a melting point of 159 to 161 °C.

`O=C(NCC1CC1)Nc1cccc(I)c1` [Compound 37, 1-(Cyclopropylmethyl)-3-(3-iodophenyl)urea] yielded a melting point of 139 to 140 °C.

Molecule `CC(C)(C)CNC(=O)Nc1ccc(C2CCCCC2)cc1` [Compound 61, 1-(4-Cyclohexylphenyl)-3-neopentylurea] displayed a melting point of 167 to 169 °C.

With `COCCNC(=O)Nc1ccc(I)cc1` [Compound 26, 1-(4-Iodophenyl)-3-(2-methoxyethyl)urea], the melting point fell in the range of 141 to 143 °C.

Turning to `O=C(Nc1ccc(I)cc1)NC1CC=CC1` [Compound 35, 1-(Cyclopent-3-en-1-yl)-3-(4-iodophenyl)urea], the melting point lay in the range of 201 to 202 °C.

In turn, `COCCNC(=O)Nc1cccc(C(C)(C)C)c1` [Compound 52, 1-(3-(t-Butyl)phenyl)-3-(2-methoxyethyl)urea] showed a melting point of 119 to 120 °C.

Take `COCCNC(=O)Nc1ccc(C(C)(C)C)cc1` [Compound 33, 1-(4-(t-Butyl)phenyl)-3-(2-methoxyethyl)urea]: the melting point is 122 to 124 °C.

With `CC(C)(C)c1cccc(NC(=O)NCC2CCCC2)c1` [Compound 49], the melting point fell in the range of 113 to 114 °C.

With `CC(C)(C)c1cccc(NC(=O)NC2CC=CC2)c1` [Compound 50, 1-(3-(t-Butyl)phenyl)-3-(cyclopent-3-en-1-yl)urea], the melting point was in the range of 135 to 137 °C.

Regarding `CC(C)(C)CNC(=O)Nc1cccc(I)c1` [Compound 43, 1-(3-Iodophenyl)-3-neopentylurea], the melting point is 114 to 115 °C.

For `CC(C)(C)c1ccc(NC(=O)NCC2CC2)cc1` [Compound 28, 1-(4-(t-Butyl)phenyl)-3-(cyclopropylmethyl)urea], the melting point is 168 to 170 °C.

In turn, `O=C(Nc1cccc(I)c1)NC1CC=CC1` [Compound 41, 1-(Cyclopent-3-en-1-yl)-3-(3-iodophenyl)urea] registered a melting point of 151 to 153 °C.

Consider `O=c1c(NCC2CCC2)c(Nc2cccc(I)c2)c1=O` [Compound 74], for which the 50% inhibitory concentration (IC50) in series [1] (Table 7) turned out to be 4.1 µM; in series [2] (Table 7) it was 8.3 µM; in series [3] (Table 7), 10.9 µM; in series [4] (Table 7) it was 15 µM.

`CC(C)(C)CNC(=O)Nc1ccc(C(C)(C)C)cc1` [Compound 65, 1-(4-(t-Butyl)phenyl)-3-neopentylurea] came in with a melting point of 185 to 187 °C.

As for `CCC(CC)NC(=O)Nc1ccc(C2CCCCC2)cc1` [Compound 62, 1-(4-Cyclohexylphenyl)-3-(pentan-3-yl)urea], the melting point was 174 to 176 °C.

Regarding `CC(C)NC(=O)Nc1ccc(I)cc1` [Compound 1], the IC50 turned out to be 83.6 µM in series [1] (Table 5), 81.9 µM in series [2] (Table 5), 91.9 µM in series [3] (Table 5) and 54.8 µM in series [4] (Table 5).

Take `CCNC(=S)Nc1cccc(C2CCCCC2)c1` [Compound 104]: the IC50 in series [1] (Table 8) turned out to be 12.9 µM; in series [2] (Table 8), 22.4 µM; in series [3] (Table 8), 19.3 µM; in series [4] (Table 8), 17.9 µM.

The molecule `O=C(Nc1ccc(I)cc1)NC1CCC1` [Compound 22, 1-Cyclobutyl-3-(4-iodophenyl)urea] came in with a melting point of 208 to 210 °C.

`CC(C)(C)c1ccc(NC(=O)NC2CCC2)cc1` [Compound 29, 1-(4-(t-Butyl)phenyl)-3-cyclobutylurea] returned a melting point of 189 to 190 °C.
